Measured values taken from patent publication US20040034078A1 (Agouron Pharmaceuticals, Inc., priority 2002, published 2004).

Tests used:
purified PARP protein = purified PARP protein (Homo sapiens, UniProt P09874); experiment: PARP Enzyme Inhibition Assay; assay type: biochemical; settings: [32P]NAD+ incorporation, 500 μM NAD+, 25° C.; competitive inhibition fit; read-out: Inhibition Constant Ki
Description: The PARP enzyme-inhibiting activities of test compounds were assayed as described by Simonin et al. (J. Biol. Chem. (1993), 268:8529-8535) and Marsischky et al. (J. Biol. Chem. (1995), 270:3247-3254) with minor modifications as follows. Samples (50 μL) containing 20 nM purified PARP protein, 10 μg/mL DNAse I-activated calf thymus DNA (sigma), 500 μM NAD^+, 0.5 μCi [^32P]NAD^+, 2% DMSO, and various concentrations of test compounds were incubated in sample buffer (50 mM Tris pH 8.0, 10 mM MgCl2, 1 mM tris(carboxyethyl)phosphine HCl) at 25° C. for 5 minutes. Under these conditions, the reaction rate was linear for times up to 10 minutes. The reaction was stopped by the addition of an equal volume of ice-cold 40% trichloroacetic acid to the samples, which were then incubated on ice for 15 minutes. The samples were then transferred to a Bio-Dot microfiltration apparatus (BioRad), filtered through Whatman GF/C glass-fiber filter paper, washed 3 times with 150 μL of wash buffer (5% trichloroacetic acid, 1% inorganic pyrophosphate), and dried. [^32P]ADP-Ribose incorporation into the acid-insoluble material was quantitated using a PhosphorImager (Molecular Dynamics) and ImageQuant software. Inhibition constants (Ki) were calculated by non-linear regression analyses using the velocity equation for competitive inhibition (Segel, Enzyme Kinetics: Behavior and Analysis of Rapid Equilibrium and Steady-State Enzyme Systems, John Wiley & Sons, Inc., New York (1975), 100-125). In the case of tight-binding inhibitors, 5 nM enzyme was used and the reaction was incubated at 25° C. for 25 minutes. Ki values for tight-binding inhibitors were calculated using the equation described by Sculley et al. (Biochim. Biophys. Acta (11986), 874:44-53).

A549 cells = experiment: Cytotoxicity Potentiation Assay; assay type: cell-based; settings: ratio of IC50 of topotecan alone to IC50 of topotecan in combination with test compound
Description: A549 cells (ATCC, Rockville, Md.) were seeded into 96-well cell culture plates (Falcon brand, Fisher Scientific, Pittsburgh, Pa.) 16 to 24 hours before experimental manipulation. Cells were then treated with a test compound (or a combination of test compounds where indicated) for either 3 days or 5 days. At the end of treatments, relative cell number was determined either by MTT assay or SRB assay. For the MTT assay, 0.2 μg/μl of MTT (3-(4,5-dimethylthiazol-2-yl)-2,5-diphenyltetrazolium bromide, Sigma Chemical Co., St. Louis, Mo.) was added to each well of a plate, and the plate was incubated in a cell-culture incubator for 4 hours. Metabolized MTT in each well was solubilized in 150 μl of DMSO (Sigma Chemical Co.) with shaking and quantified with a Wallac 1420 Victor plate reader (EG & G Wallac, Gaithersburg, Md.) at 540 nm. For the SRB assay, cells were fixed with 10% trichloroacetic acid (Sigma Chemical Co) for an hour at 4° C. After extensively washing, fixed cells were stained for 30 minutes with 0.4% sulforhodamine B (SRB, Sigma Chemical Co.) in 1% acetic acid (Sigma Chemical Co). Unbound SRB was washed away with 1% acetic acid. Then the cultures were air-dried, and bound dye was solubilized with 10 mM unbuffered Tris base (Sigma Chemical Co) with shaking. The bound dye was measured photometrically with the Wallac Victor plate reader at 515 nm. The ratio of the OD (optical density) value of a compound-treated culture to the OD value of a mock-treated culture, expressed in percentage, was used to quantify the cytotoxicity of a compound. The concentration at which a compound causes 50% cytotoxicity is referred to as IC50. To quantify the potentiation of the cytotoxicity of topotecan or temozolomide by test compounds, a dimensionless parameter PF50 is used and is defined as the ratio of the IC50 Of topotecan or temozolomide alone to the IC50 of topotecan or temozolomide in combination with a test compound. For the compounds of the invention, PF50 values were determined by testing with topotecan.

Chain of purified PARP protein (P09874 whole entry): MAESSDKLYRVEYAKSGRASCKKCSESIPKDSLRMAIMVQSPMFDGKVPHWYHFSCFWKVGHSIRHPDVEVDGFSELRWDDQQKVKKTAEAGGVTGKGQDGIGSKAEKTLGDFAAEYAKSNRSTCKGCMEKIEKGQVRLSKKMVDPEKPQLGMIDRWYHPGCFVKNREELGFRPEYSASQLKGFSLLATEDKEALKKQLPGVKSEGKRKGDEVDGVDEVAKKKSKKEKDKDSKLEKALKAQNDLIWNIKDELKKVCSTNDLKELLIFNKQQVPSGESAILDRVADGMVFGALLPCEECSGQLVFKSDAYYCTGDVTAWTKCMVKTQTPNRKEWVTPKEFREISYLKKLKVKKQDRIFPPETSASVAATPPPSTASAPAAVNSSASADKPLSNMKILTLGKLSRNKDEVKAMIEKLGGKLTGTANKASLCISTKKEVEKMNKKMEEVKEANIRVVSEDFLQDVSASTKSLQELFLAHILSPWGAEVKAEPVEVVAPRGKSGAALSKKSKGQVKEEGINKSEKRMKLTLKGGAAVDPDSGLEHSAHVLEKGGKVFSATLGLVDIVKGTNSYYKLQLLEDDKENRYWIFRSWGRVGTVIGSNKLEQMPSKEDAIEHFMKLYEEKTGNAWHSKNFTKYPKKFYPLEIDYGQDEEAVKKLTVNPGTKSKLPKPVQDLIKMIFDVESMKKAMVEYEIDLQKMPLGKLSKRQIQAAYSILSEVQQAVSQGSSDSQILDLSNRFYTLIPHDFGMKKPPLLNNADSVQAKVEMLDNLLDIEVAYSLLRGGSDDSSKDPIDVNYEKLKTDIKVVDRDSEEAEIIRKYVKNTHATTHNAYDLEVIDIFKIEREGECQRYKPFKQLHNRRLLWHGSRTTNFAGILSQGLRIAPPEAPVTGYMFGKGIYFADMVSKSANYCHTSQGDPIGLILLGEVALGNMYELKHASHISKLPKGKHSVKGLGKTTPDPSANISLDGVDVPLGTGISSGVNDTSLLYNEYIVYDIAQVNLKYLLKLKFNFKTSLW

Ki (purified PARP protein) | Compound | Cytotoxicity Potentiation PF50 (A549 cells)
29 ± 7 nM | CCCCNCCSCc1nc2c(C(N)=O)cccc2[nH]1 [Compound 1, 2-(2-Butylamino-ethylsulfanylmethyl)-1H-benzimidazole-4-carboxylic Acid Amide] | 1.2
6.9 ± 0.4 nM | NC(=O)c1cccc2[nH]c(CSc3ccccc3C3=NCCCN3)nc12 [Compound 7] | 2.2
10 ± 3 nM | CC(=O)Nc1ccc(SCc2nc3c(C(N)=O)cccc3[nH]2)cc1 [Compound 9, 2-(4-Acetylamino-phenylsulfanylmethyl)-1H-benzimidazole-4-carboxylic Acid Amide] | 1.1
19 ± 2 nM | CC(=O)c1ccc(N2CCN(Cc3nc4c(C(N)=O)cccc4[nH]3)CC2)cc1 [Compound 17, 2-[4-(4-Acetyl-phenyl)-piperazin-1-vimethyl]-1H-benzimidazole-4-carboxylic Acid Amide] | 1.2
8.6 ± 0.1 nM | CN(CCc1ccccc1)Cc1nc2c(C(N)=O)cccc2[nH]1 [Compound 18, 2-[(Methyl-phenethyl-amino)-methyl]-1H-benzimidazole-4-carboxylic Acid Amide] | 1.4
22 ± 2 nM | NC(=O)c1cccc2[nH]c(CN3CCc4ccccc4C3)nc12 [Compound 19, 2-(3,4-Dihydro-1H-isoqluinolin-2-ylmethyl)-1H-benzimidazole-4-carboxylic Acid Amide] | 1.1
2.5 ± 0.2 nM | NC(=O)c1cccc2[nH]c(CS(=O)(=O)c3ccc([N+](=O)[O-])cc3)nc12 [Compound 27, 2-(4-Nitro-benzenesulfonylmethyl)-1H-benzimidazole-4-carboxylic Acid Amide] | 1.3
3.9 ± 0.6 nM | NC(=O)c1cccc2[nH]c(C[S+]([O-])c3ccc([N+](=O)[O-])cc3)nc12 (stereo not drawn) [Compound 28, 2-(4-Nitro-benzenesulfinylmethyl)-1H-benzimidazole-4-carboxylic Acid Amide] | 1.4
24 nM | NC(=O)c1cccc2[nH]c(CS(=O)(=O)c3ccc(O)cc3)nc12 [Compound 29, 2-(4-Hydroxy-benzenesulfonylmethyl)-1H-benzimidazole-4-carboxylic Acid Amide] | 1.2
26 nM | CCCCNCCS(=O)(=O)Cc1nc2c(C(N)=O)cccc2[nH]1 [Compound 30, 2-(2-Butylamino-ethanesulfonylmethyl)-1H-benzimidazole-4-carboxylic Acid Amide] | 1.1
3.8 ± 0.5 nM | CC(=O)Nc1ccc(S(=O)(=O)Cc2nc3c(C(N)=O)cccc3[nH]2)cc1 [Compound 32, 2-(4-Acetylamino-benzenesulfonylmethyl)-1H-benzimidazole-4-carboxylic Acid Amide] | 1.1
10.3 ± 0.3 nM | COc1ccc(S(=O)(=O)Cc2nc3c(C(N)=O)cccc3[nH]2)cc1 [Compound 33, 2-(4-Methoxy-benzenesulfonylmethyl)-1H-benzimidazole-4-carboxylic Acid Amide] | 1.3
12 ± 1 nM | NC(=O)c1cccc2[nH]c(CS(=O)(=O)c3ccc(C(F)(F)F)cc3)nc12 [Compound 34, 2-(4-Trifluoromethyl-benzenesulfonylmethyl)-1H-benzimidazole-4-carboxylic Acid Amide] | 1.2
16 ± 1 nM | NC(=O)c1cccc2[nH]c(CS(=O)(=O)c3ccc(NC(=O)OCc4ccccc4)cc3)nc12 [Compound 38, [4(4-Carbamoyl-1H-benzoimidazol-2-ylmethanesulfonyl)-phenyl]-carbamic Acid Benzyl Ester] | 1.1
11 ± 3 nM | CC(=O)Nc1ccc(CSc2nc3c(C(N)=O)cccc3[nH]2)cc1 [Compound 42, 2-(4-Acetylamino-benzylsulfanyl)-1H-benzimidazole-4-carboxylic Acid Amide] | 1.1
10 ± 3 nM | CC(=O)Nc1ccc(S(=O)(=O)Cc2nc3c(C(N)=O)cccc3n2C)cc1 [Compound 48, 2-(4-Acetylamino-benzenesulfonylmethyl)-1-methyl-1H-benzoimidazole-4-carboxylic Acid Amide] | 1.2
7.4 nM | NC(=O)c1cccc2[nH]c(CS(=O)(=O)c3ccc(NC(=O)CO)cc3)nc12 [Compound 49] | 1.0
35 ± 6 nM | CN(CCc1ccccc1)c1nc2c(C(N)=O)cccc2[nH]1 [Compound 54, 2-(Methyl-phenethyl-amino)-1H-benzoimidazole-4-carboxylic Acid Amide] | –
85 ± 8 nM | CNc1nc2c(C(N)=O)cccc2[nH]1 [Compound 55, 2-Methylamino-1H-benzoimidazole-4-carboxylic Acid Amide] | –
319 ± 36 nM | NC(=O)c1cccc2[nH]c(N)nc12 [Compound 56, 2-Amino-1H-benzoimidazole-4-carboxylic Acid Amide] | –
44 ± 4 nM | CN(C)c1nc2c(C(N)=O)cccc2[nH]1 [Compound 57, 2-Dimethylamino-1H-benzoimidazole-4-carboxylic Acid Amide] | –
66 ± 8 nM | NC(=O)c1cccc2[nH]c(NCc3ccccc3)nc12 [Compound 58, 2-Benzylamino-1H-benzoimidazole-4-carboxylic Acid Amide] | –
23 ± 4 nM | CCN(CC)CCNc1nc2c(C(N)=O)cccc2[nH]1 [Compound 59, 2-(2-Diethylamino-ethylamino)-1H-benzoimidazole-4-carboxylic Acid Amide] | –
81 ± 10 nM | NC(=O)c1cccc2[nH]c(NCCc3cccs3)nc12 [Compound 60, 2-(2-Thiophen-2-yl-ethylamino)-1H-benzoimidazole-4-carboxylic Acid Amide] | –
12 ± 1 nM | NC(=O)c1cccc2[nH]c(NCCc3cnc[nH]3)nc12 [Compound 61, 2-[2-(3H-Imidazol-4-yl)-ethylamino]-1H-benzoimidazole-4-carboxylic Acid Amide] | –
